The test system of assay [1] is Aphis Craccivora (cowpea aphid). Put plainly: Example B11: translaminar activity against Aphis craccivora on French bean leaves. The format is in vivo. As to conditions: 120 h, upper leaf side painted, aphids on lower side, 5 days. As for the experimental part:
Translaminar Activity Against Aphis Craccivora (Cowpea Aphid)
French bean leaves (Phaseolus vulgaris) are infested with about 20 mixed age individuals on the lower leaf side using clip cages. 1 day after the infestation, the upper side of the leaves is treated with the test solution by painting. 5 days later, samples are checked for mortality.

For assay [2], the system named is Myzus persicae (green peach aphid). Put plainly: Example B13: drench activity against Myzus persicae, pea seedlings in field soil. As to conditions: 168 h, read-out: drench activity (mortality).
For assay [3], the system named is Nilaparvata lugens (brown rice planthopper). Put plainly: Example B8: activity against Nilaparvata lugens, sprayed rice seedlings (larvicide, feeding/contact). As to conditions: in Oryza sativa, read-out: activity (mortality, growth regulation, effects on F1 generation).
Assay [4] relates to Myzus persicae (green peach aphid). Put plainly: Example B2: activity against Myzus persicae, pea seedling roots in test solution (systemic/feeding, curative). The following applies: 144 h, read-out: activity (mortality).
The test system is the same in assay [5]. Put plainly: Example B1: activity against Myzus persicae, sprayed sunflower leaf discs (feeding/residual contact, preventive). As to conditions: foliar, 144 h, read-out: activity (mortality).
Assay [6] relates to Tetranychus urticae (two-spotted spider mite). Put plainly: Example B4: activity against Tetranychus urticae, sprayed bean leaf discs (feeding/residual contact, preventive). The following applies: foliar, 192 h, read-out: activity (egg, larval and adult mortality).
Assay [7] has as its system Aphis Craccivora (cowpea aphid). Put plainly: Example B10: activity against Aphis craccivora, pea seedling roots in test solution (systemic/feeding). It counts as in vivo. The following applies: 144 h, roots of infested pea seedlings in test solution, 6 days. From the text:
Activity Against Aphis Craccivora (Cowpea Aphid)
(Mixed Population, Systemic/Feeding)

The test system of assay [8] is Myzus persicae (green peach aphid). Put plainly: Example B17: activity against Myzus persicae on sprayed pepper plants (feeding/residual contact). It counts as in vivo. The following applies: 144 h, infested pepper plants sprayed, 6 days.
Assay [9] relates to Thrips tabaci (onion thrips). Put plainly: Example B3: activity against Thrips tabaci, sprayed sunflower leaf discs (feeding/residual contact, preventive). The format is in vivo. The following applies: foliar, 144 h, mixed population, 6 days. The source says: Activity Against Thrips tabaci (Onion Thrips)
(Mixed Population, Feeding/Residual Contact Activity, Preventive)

Assay [10] has as its system Bemisia tabaci (tobacco white fly). Put plainly: Example B7: activity against Bemisia tabaci, sprayed bean plants (larvicide, contact/feeding). It counts as in vivo. As to conditions: 504 h, bean plants with N-2 nymphs sprayed, three weeks, read-out: activity (efficacy, number of emerged adults). As for the experimental part:
Activity Against Bemisia tabaci (Tobacco White Fly)
(Larvicide, Contact/Feeding)
Bean plants are infested with 20-30 adults that were removed after a 4 day egg-laying period. After another 7 days, bean plants with hatched nymphs (N-2) are treated (2 replicates) with the test solutions in a spray chamber. Three weeks later, samples are checked for number of emerged adults. Efficacy was calculated by comparing number of emerged adults in treated and non treated samples.

Structures are written as SMILES.

Consider `COCON1C(=O)C(c2cc(C)ccc2C)=C(OC(=O)C2CC2)C12CCN(OC)CC2` [P1.4, Cyclopropanecarboxylic acid 3-(2,5-dimethyl-phenyl)-8-methoxy-1-methoxymethoxy-2-oxo-1,8-diaza-spiro[4.5]dec-3-en-4-yl ester], for which the mortality at 400 ppm in assay [1], in [3], in assay [4], in [5] and in assay [6] was more than 80% each time. Further, the mortality at 25 ppm in assay [2] is more than 80%.
`CCOC(=O)OC1=C(c2c(C)cc(C)cc2C)C(=O)N(OCC2(C)COC2)C12CCN(OC)CC2` [P1.23]: the mortality at 400 ppm in assay [7], in assay [1] and in [4] was more than 80% throughout. Besides, the mortality at 25 ppm in assay [2] is more than 80%.
Regarding `CCOC(=O)OC1=C(c2c(C)cc(C)cc2C)C(=O)N(OCC2CCCO2)C12CCN(OC)CC2` (stereo not drawn) [P1.24], the mortality at 400 ppm in assay [7], in assay [1], in assay [3], in assay [4], in assay [5] and in assay [6] was more than 80% each time. The mortality at 200 ppm in [8] is not below 80%. The mortality at 25 ppm in assay [2] is more than 80%.
On to `CCOC(=O)OC1=C(c2c(C)cc(C)cc2C)C(=O)N(OCCOC2CCCCO2)C12CCN(OC)CC2` (stereo not drawn) [P1.25], for which the mortality at 400 ppm in assay [7], in assay [3] and in [6] was more than 80% each time.
For the compound `CCOC(=O)OC1=C(c2c(C)ccc(C)c2C)C(=O)N(OCOC)C12CCN(OC)CC2` [P1.53], the mortality at 400 ppm in assay [7], in [1], in assay [3] and in assay [4] was more than 80% in each case. This compound displayed a mortality at 200 ppm in assay [8] not below 80%. Further, the mortality at 25 ppm in assay [2] is more than 80%.
For the compound `CCOC(=O)OC1=C(c2c(C)ccc(Cl)c2C)C(=O)N(OCOC)C12CCN(OC)CC2` [P1.55], the mortality at 400 ppm in assay [7], in [1], in assay [3], in [4] and in [5] was more than 80% in each case. Also, in assay [8], the mortality at 200 ppm is not below 80%. In addition, the mortality at 25 ppm in assay [2] was more than 80%.
Turning to `CCOC(=O)OC1=C(c2c(C)ccc(C)c2Cl)C(=O)N(OCOC)C12CCN(OC)CC2` [P1.59], the mortality at 400 ppm in [7], in assay [1], in assay [3], in [4], in [5] and in [6] was more than 80% throughout. In assay [2], the mortality at 25 ppm was more than 80%.
Turning to `CCOC(=O)OC1=C(c2c(C)cc(Br)cc2C)C(=O)N(OCOC)C12CCN(OC)CC2` [P1.62], the mortality at 400 ppm in assay [9] is more than 80%.
`CCOC(=O)OC1=C(c2c(C)cc(C)cc2Cl)C(=O)N(OC)C12CCN(OC)CC2` [P1.70]: the mortality at 400 ppm in assay [7], in assay [1], in assay [3], in assay [4] and in [5] was more than 80% throughout. Further, in assay [2], the mortality at 25 ppm was more than 80%.
For the compound `CCOC(=O)OC1=C(c2c(C)cc(C)cc2C)C(=O)N(OCC2CCOC2)C12CCN(OC)CC2` (stereo not drawn) [P1.78], the pest or weed control at 200 ppm in assay [10] is more than 80%. The mortality at 400 ppm in assay [7], in assay [1], in [3], in assay [4] and in assay [6] was more than 80% in each case. Also, in assay [8], the mortality at 200 ppm was not below 80%. Besides, the mortality at 25 ppm in assay [2] was more than 80%.
In assay [8], `CCOC(=O)OC1=C(c2c(C)cc(Br)cc2C)C(=O)N(OC)C12CCN(OC)CC2` [P1.88] had a mortality at 200 ppm not below 80%. Moreover, the mortality at 25 ppm in assay [2] was more than 80%. For the same compound, the mortality at 400 ppm in [3], in [4], in assay [5] and in [6] was more than 80% each time.
For the compound `CCOC(=O)OC1=C(c2c(C)cc(C)cc2Cl)C(=O)N(OC2CCCO2)C12CCN(OC)CC2` (stereo not drawn) [P1.107], the mortality at 400 ppm in [7], in assay [1], in [3], in assay [4] and in assay [5] was more than 80% in each case. This compound also registered a mortality at 200 ppm in assay [8] not below 80%. The mortality at 25 ppm in assay [2] is more than 80%.
For `CON1CCC2(CC1)C(O)=C(c1cc(C)ccc1C)C(=O)N2OC` [P2.1], the mortality at 25 ppm in assay [2] is more than 80%. Further, the mortality at 400 ppm in [4] and in assay [5] was more than 80% each time.
On to `COCCON1C(=O)C(c2cc(C)ccc2C)=C(O)C12CCN(OC)CC2` [P2.3], for which the mortality at 400 ppm in assay [1], in assay [3], in [4] and in [5] was more than 80% each time. The same compound returned a mortality at 200 ppm in assay [8] not below 80%. The mortality at 25 ppm in [2] is more than 80%.
In the case of `CON1CCC2(CC1)C(O)=C(c1c(C)cc(C)cc1C)C(=O)N2OCC1(C)COC1` [P2.19], the mortality at 400 ppm in assay [7], in assay [1], in assay [3], in assay [4], in [5] and in assay [6] was more than 80% throughout. In [8], this compound returned a mortality at 200 ppm not below 80%.
In the case of `CON1CCC2(CC1)C(O)=C(c1c(C)cc(C)cc1C)C(=O)N2OC1CCOCC1` [P2.21], the mortality at 400 ppm in assay [7], in [1], in assay [3], in assay [4], in [5] and in [6] was more than 80% throughout. In assay [8], the mortality at 200 ppm is not below 80%. In [2], the mortality at 25 ppm was more than 80%.
`CON1CCC2(CC1)C(O)=C(c1c(C)cc(C)cc1C)C(=O)N2OCC1CCCCO1` (stereo not drawn) [P2.23]: the mortality at 400 ppm in assay [7], in assay [1], in assay [3], in assay [4] and in assay [5] was more than 80% each time.
Regarding `CON1CCC2(CC1)C(O)=C(c1ccc(C)cc1C)C(=O)N2OC` [P2.51], the mortality at 400 ppm in [9], in assay [4] and in assay [5] was more than 80% in each case.
On to `COCCON1C(=O)C(c2c(C)cc(C)cc2Br)=C(O)C12CCN(OC)CC2` [P2.57], for which the mortality at 400 ppm in assay [7], in [1], in assay [3], in assay [4], in [5] and in assay [6] was more than 80% in each case. In [2], the mortality at 25 ppm was more than 80%.
Consider `CON1CCC2(CC1)C(O)=C(c1c(C)cc(C)cc1C)C(=O)N2OCc1ccoc1` [P2.64], for which the pest or weed control at 200 ppm in [10] was more than 80%. Also, the mortality at 400 ppm in assay [7], in assay [1], in assay [3], in [4], in assay [5] and in [6] was more than 80% each time. In addition, the mortality at 200 ppm in [8] is not below 80%. Besides, the mortality at 25 ppm in assay [2] is more than 80%.
